Usually EC50 stands for the concentration that produces a half-maximal response. The Emax is the size of the effect at its maximum, as opposed to the concentration needed.

Each structure is given as a SMILES string. Like-named read-outs stand apart in the source and are kept apart here.

The target in this experiment is T1, human M2 receptor (Homo sapiens, UniProt P08172).
T1 sequence (P08172 1-466): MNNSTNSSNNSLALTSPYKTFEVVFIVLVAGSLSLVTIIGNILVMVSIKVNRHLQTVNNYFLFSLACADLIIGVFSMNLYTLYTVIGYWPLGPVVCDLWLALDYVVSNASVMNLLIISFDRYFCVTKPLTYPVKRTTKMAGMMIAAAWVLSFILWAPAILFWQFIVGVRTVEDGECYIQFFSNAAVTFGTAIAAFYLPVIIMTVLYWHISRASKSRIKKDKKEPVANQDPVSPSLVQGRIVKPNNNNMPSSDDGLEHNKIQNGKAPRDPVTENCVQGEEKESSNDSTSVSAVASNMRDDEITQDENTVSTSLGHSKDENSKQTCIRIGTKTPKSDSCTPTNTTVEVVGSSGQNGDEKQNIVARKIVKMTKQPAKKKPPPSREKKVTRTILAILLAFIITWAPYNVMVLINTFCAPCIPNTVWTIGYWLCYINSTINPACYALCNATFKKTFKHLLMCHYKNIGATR
The experiment in a line: SPA GTP (GTPgS) binding curve shift assay, M2. Format: biochemical. How it is done: Membranes were prepared for GTPgS binding assays from CHO-K1 cells stably expressing human M2 or human M4 receptors. Cells were grown in 5-layer cell culture flasks. Cells were washed with 50 mL of PBS and then dissociated with 0.05% trypsin. Dissociated cells were then collected by centrifugation at 650×g for 8 min at 4° C. Pellets were rewashed in PBS by centrifugation and resuspended in 30 mL of 20 mM HEPES, 10 mM EDTA, pH 7.4. After sitting on ice for 30 min, membranes were collected by centrifugation at 50000×g for 15 min at 4° C., resuspended in 30 mL of 20 mM HEPES, 0.1 mM EDTA, pH 7.4, and collected again by centrifugation. Pellets were then washed twice by centrifugation in 30 mL of 20 mM HEPES, pH 7.4, and stored at −80° C. until the day of the assay. On the day of the assay, pellets were thawed on ice and resuspended in 1 mL of 20 mM HEPES, pH 7.4, 10 mM MgCl2, and 100 mM NaCl using Dounce homogenization.
According to Promega guidelines, membrane protein concentration was determined by BCA protein assay (Promega, Madison, WI).
On the day of the assay, serial dilutions of test PAM compounds were brought up in assay buffer (20 mM HEPES, 10 mM MgCl2; see Table 4 for NaCl concentrations) at four times the final assay concentration. […] of membrane homogenates (containing […] of membrane protein) were prepared in assay buffer supplemented with GDP at 4× final assay concentration (see Table 4 for GDP concentrations) and dispensed into 96 well polypropylene, U-bottom Greiner plates. Membrane plates were incubated for 10 min at room temperature with gentle shaking. Then, 25 μL of test compounds were added to assay plates. Plates were then incubated, with shaking, for an additional 10-15 min. Then, 25 μL of diluted agonists serially diluted in assay buffer at 4× final assay concentration was added to assay plates. Plates were then incubated, with shaking, for an additional 10-15 min. Next, […] of 0.4 nM ^35S-GTP (Perkin Elmer, Waltham, MA) in assay buffer was added to assay mixtures. The binding reaction was left on the shaker for 1 h at room temperature. Membranes in assay reactions were then transferred to GF/C filter plates (UniFilter, Perkin Elmer) and washed three times using FilterMate Harvester (Perkin Elmer) with cold assay buffer containing no GDP. Filter plates were then dried at 40° C. overnight, and […] of Beta Plate Scintillation liquid was added. Plates were top and bottom sealed before being read on the TopCount scintillation counter (Perkin Elmer, Waltham, MA).
Raw data for all assays was transmitted directly from plate readers into the Beacon database for processing. All assay plates contained positive and negative control wells for data normalization and scaling. […] All control wells contained DMSO at a final assay concentration that matched the test compound wells.
For GTPgS assays, the negative control wells were defined as 0% response. The highest response in a plate was scaled to 1, representing 100% response. Data from test compound wells was scaled to these controls and are reported as % control values. This was done to allow for subsequent GraphPad cooperativity analysis, setting the maximal response at no more than 1.

Where [1] appears, read: M2, Emraclidine concentration 0 nM.
Where [2] appears, read: M2, Emraclidine concentration 41.2 nM, read-out: Emax.
Setting [3] is: M2, Emraclidine concentration 123 nM, read-out: Emax.
Where [4] appears, read: M2, Emraclidine concentration 370 nM.
[5] abbreviates: M2, Emraclidine concentration 1110 nM, read-out: Emax.
Setting [6] is: M2, Emraclidine concentration 3330 nM, read-out: Emax.
The mark [7] stands for this setting: M2, Emraclidine concentration […].
The mark [8] stands for this setting: M2, MK-4710 concentration 41.2 nM, read-out: Emax.
Where [9] appears, read: M2, MK-4710 concentration 123 nM, read-out: Emax.
The mark [10] stands for this setting: M2, MK-4710 concentration 370 nM.
Where [11] appears, read: M2, MK-4710 concentration 1110 nM, read-out: Emax.
Setting [12] is: M2, MK-4710 concentration 3330 nM, read-out: Emax.

As for `CCCCCCCOc1nsnc1C1=CCCCN1C` [KTX-593, 3-(heptyloxy)-4-(1-methyl-1,4,5,6-tetrahydropyridin-2-yl)-1,2,5-thiadiazole], the concentration for a half-maximal effect (EC50) came out at 35.7 nM under setting [1] and 19.6 nM (M2, MK-4710 concentration 0 nM). Moreover, the maximal response (Emax) runs as follows: under setting [1], 39.8%; under setting [2], 52.6%; under setting [3], 52.2%; under setting [5], 67.5%; under setting [6], 75.1%; (M2, MK-4710 concentration 0 nM) 38.7%. Also, the Emax came to 50.1% under setting [8], 50.2% under setting [9], 62.2% under setting [11] and 77.6% under setting [12]. Moreover, the maximum response (Emax) at […] was 50.1% under setting [4]; 48.7% under setting [7]; 61.4% under setting [10]; 57% (M2, MK-4710 concentration […]). In addition, the “α (cooperativity, affinity shift)” value (M2, M4 PAM Emraclidine) was 1.0 and the “α (cooperativity, affinity shift)” value (M2, M4 PAM MK-4710) was 1.0. The “β (cooperativity, efficacy shift)” value (M2, M4 PAM Emraclidine) was 1370.0 and the “β (cooperativity, efficacy shift)” value (M2, M4 PAM MK-4710) is on record as 10.3. Besides, the “τ (agonist pharmacology)” value was 1.6 (M2, M4 PAM Emraclidine) and 0.0 (M2, M4 PAM MK-4710).
Consider `CC1OC2(CS1)CN1CCC2CC1` (stereo not shown) [cevimeline, Cevimeline, reference compound], for which the EC50 under setting [1] amounted to 2100 nM and the EC50 (M2, MK-4710 concentration 0 nM) turned out to be 2260 nM. Also, the Emax under setting [1] is reported as 34.0%; the Emax under setting [2] came to 57%; the maximal effect (Emax) under setting [3] was 51.8%; the Emax under setting [5] was 51.4%; the maximal response (Emax) under setting [6] amounted to 69.6%; the maximal response (Emax) (M2, MK-4710 concentration 0 nM) is on record as 39.6%. Also, the maximal effect (Emax) under setting [8] worked out at 38.2%, the Emax under setting [9] came to 39%, the maximal response (Emax) under setting [11] amounted to 49.5% and the maximal effect (Emax) under setting [12] stood at 68.2%. For the same compound, the maximum response (Emax) at […] turned out to be 48.6% under setting [4]; 43.8% under setting [7]; 39.3% under setting [10]; 42.1% (M2, MK-4710 concentration […]). Moreover, the “α (cooperativity, affinity shift)” value runs as follows: (M2, M4 PAM Emraclidine) 1.0; (M2, M4 PAM MK-4710) 1.0. Also, the “β (cooperativity, efficacy shift)” value is, setting by setting: (M2, M4 PAM Emraclidine) 21.1; (M2, M4 PAM MK-4710) 53.4. The “τ (agonist pharmacology)” value (M2, M4 PAM Emraclidine) is 0.0 and the “τ (agonist pharmacology)” value (M2, M4 PAM MK-4710) was 0.0.
In the case of `CCCCCOc1nsnc1C1=CCCCN1C` [KTX-517, 3-(1-methyl-1,4,5,6-tetrahydropyridin-2-yl)-4-(pentyloxy)-1,2,5-thiadiazole], the EC50 under setting [1] came to 18.5 nM; the EC50 (M2, MK-4710 concentration 0 nM) is 14.3 nM; the EC50 (M2, MK-4710 concentration 41.2 nM) came out at 11.9 nM; the EC50 (M2, MK-4710 concentration 123 nM) stood at 14.8 nM; the concentration for a half-maximal effect (EC50) under setting [10] is 13.1 nM; the EC50 (M2, MK-4710 concentration 1110 nM) was 15.8 nM. The 50% effective concentration (EC50) is 10.3 nM (M2, MK-4710 concentration 3330 nM) and 25.7 nM (M2, MK-4710 concentration […]). Also, the Emax runs as follows: under setting [1], 35.6%; under setting [2], 57.9%; under setting [3], 51.1%; under setting [5], 65.9%; under setting [6], 79.2%; (M2, MK-4710 concentration 0 nM) 45.1%. In addition, the maximum response (Emax) stood at 53.2% under setting [8], 55.6% under setting [9], 70.6% under setting [11] and 78.7% under setting [12]. In addition, the Emax at […] under setting [4] came out at 52.6%; the maximal response (Emax) at […] under setting [7] came out at 44.8%; the Emax at […] under setting [10] came out at 59.1%; the Emax at […] (M2, MK-4710 concentration […]) was found to be 60.6%. Moreover, the “α (cooperativity, affinity shift)” value is, setting by setting: (M2, M4 PAM Emraclidine) 1.0; (M2, M4 PAM MK-4710) 1.0. Further, the “β (cooperativity, efficacy shift)” value is, setting by setting: (M2, M4 PAM Emraclidine) 18.1; (M2, M4 PAM MK-4710) 5.0. In addition, the “τ (agonist pharmacology)” value is, setting by setting: (M2, M4 PAM Emraclidine) 0.1; (M2, M4 PAM MK-4710) 0.1.
Turning to `CCCCCCOc1nsnc1C1=CCCN(C)C1` [xanomeline, reference compound], the Emax was determined as 74.7%. Under setting [1], the Emax is recorded as 36.2%. Under setting [2], the maximal effect (Emax) worked out at 48.2%. Further, the maximal response (Emax) under setting [3] turned out to be 49.8%. The maximum response (Emax) at […] under setting [4] is 41.5%. In addition, the Emax under setting [5] amounted to 59.6%. Besides, the Emax under setting [6] amounted to 64.1%. Also, the maximal effect (Emax) at […] under setting [7] came out at 41.7%. Besides, for the setting “M2, M4 PAM Emraclidine”, the “τ (agonist pharmacology)” value amounted to 0.0. Also, the “τ (agonist pharmacology)” value (M2, M4 PAM MK-4710) was 0.0. The maximal response (Emax) (M2, MK-4710 concentration 0 nM) is on record as 55.6%. Besides, under setting [8], the Emax was found to be 65.3%. For the same compound, the maximal effect (Emax) at […] under setting [10] was 55.5%. Under setting [11], the Emax was 74.1%. Moreover, under setting [12], the Emax turned out to be 75.7%. Besides, for the setting “M2, MK-4710 concentration […]”, the Emax at […] amounted to 60.1%.

For the origin of these results see patent US20250228832A1, “METHODS FOR TREATING DISORDERS AMELIORATED BY MUSCARINIC RECEPTOR ACTIVATION” (KARUNA THERAPEUTICS, INC., priority 2022, published 2025).
